“Also recorded” adds a separate entry of the source.
How the values were obtained:
5XFAD mice [1] = assay: Amyloid plaque staining and Aβ ELISA in 5XFAD mice; format: in vivo, mouse; conditions: oral once daily for 3 months
Protocol: A. Thioflavin-S staining of amyloid plaques in the hippocampus (HP), motor cortex (MC), and frontal cortex (FC) of 5XFAD mouse brain sections. Scale bar, 50 μm. B. Quantitative analysis of amyloid plaques. […] F. The percentage of time spent in the target quadrant in the probe trail.
Free-floating 30-μm-thick serial sections were treated with 0.3% hydrogen peroxide for 10 min, and then incubated with anti-AEP-cleaved APP (1:500) or anti-Aβ (1:500) overnight. The signal was developed using Histostain-SP kit (#956543, invitrogen) according to the manufacturer's instructions.
After rinsed in distilled water, the sections were transferred to blocking solution containing 1% sodium hydroxide and 0.9% hydrogen peroxide for 20 min. The sections were incubated for 5 s in 0.25% acidic acid, then washed in distilled water and stained for 5 min with 0.0125% Thioflavin-S in 50% ethanol. The sections were washed with 50% ethanol and placed in distilled water. Then the sections were covered with glass cover using mounting solution.
The mice brains were homogenized in 8X mass of 5 M guanidine HCl/50 mM Tris HCl (pH 8.0), and incubated at room temperature for 3 h. Then the samples were diluted with cold reaction buffer (phosphate buffered saline with 5% BSA and 0.03% Tween 20, supplemented with protease inhibitor cocktail), and centrifuged at 16 000 g for 20 min at 4° C. The supernatant were analysed by human Aβ42 ELISA kit according to the manufacturer's instructions (KHB3441, Invitrogen). The Aβ42 concentrations were determined by comparison with the standard curve.

5XFAD mice [2] = assay: Synaptic density, spine density and LTP in 5XFAD mice; format: in vivo, mouse
Source text: A. Representative electron microscopy of the synaptic structures. Arrows indicate the synapses. B. Quantitative analysis of the synaptic density in vehicle—and compound 11-treated 5XFAD mice. Data are shown as mean ±SEM (n=3 mice per group). * p <0.01. C. […] Scale bar, 5 μm. D. Quantitative analysis of the spine density. […] E. Long-term potentiation (LTP) of fEPSPs was induced by 3× TBS (4 pulses at 100 Hz, repeated 3 times with a 200-ms interval). Shown traces are representative fEPSPs recorded at the time point 1 and 2 (vehicle treated), 3 and 4 (compound 11-treated mouse). […] Data are presented as mean±SEM. *p<0.05 vs vehicle-treated mice. F. Synaptic transmission assessed by input/output (I/O) relation between stimuli intensity and fEPSP slope. I/O curves obtained in hippocampal slices prepared from vehicle- and compound 11-treated 5XFAD mice.
Synaptic dysfunction is the early feature of AD and is believed to be the basis of cognitive impairment. 5XFAD mice show decreased synaptic density compared to non-transgenic control mice. […] The density of dendritic spines along individual dendrites of pyramidal neurons was assessed by Golgi stain. […] Long-term potentiation (LTP) is a measure of synaptic plasticity that underlies learning and memory. 5XFAD mice have decreased LTP magnitude at Schaffer collateral-CA1 pathways.
Synaptic density was determined by electron microscopy as described previously (22). After deep anesthesia, mice were perfused transcardially with 2% glutaraldehyde and 3% paraformaldehyde in PBS. […]
Electrophysiological analysis was carried out as previously described (23). […] The field excitatory post-synaptic potentials (fEPSPs) were recorded in CA1 stratum radiatum by a glass microelectrode filled with a-CSF with resistance of 3-4 MEI The stimulation output (Master-8; AMPI, Jerusalem) was controlled by the trigger function of an EPC9 amplifier (HEKA Elektronik, Lambrecht, Germany). fEPSPs were recorded under current-clamp mode. […] The magnitudes of LTP are expressed as the mean percentage of baseline fEPSP initial slope. […]

In the case of Nc1ccc(N2CCOCC2)c2nonc12 [Compound 11], the “amyloid plaque deposition (Thioflavin S)” value (5XFAD mice [1]; hippocampus, motor cortex, frontal cortex) is reported as “decreased; also recorded: attenuated”, the “concentration of Aβ 1-40 in brain lysates” value (5XFAD mice [1]) is reported as “decreased” and the “concentration of Aβ 1-42 in brain lysates” value (5XFAD mice [1]) is reported as “decreased”. For the same compound, the “density of dendritic spines (Golgi stain)” value (5XFAD mice [2]; 5XFAD mice) was “increased; also recorded: reversed”, the “density of synapse (electron microscopy)” value (5XFAD mice [2]; CA1 area, 5XFAD mice) was “notably increased” and the “long-term potentiation (LTP) magnitude” value (5XFAD mice [2]; Schaffer collateral-CA1, 5XFAD mice) was “significantly reversed the LTP deficits; also recorded: enhanced”.

— patent US20170029388A1, “Treatment of Neurodegenerative Diseases with Asparagine Endopeptidase (AEP) Inhibitors and Compositions Related Thereto” (INTERCONTINENTAL GREAT BRANDS LLC, priority 2014, published 2017)
